Data as given in publication PMC4802607, “Crystal structure and biochemical characterization of the recombinant ThBgl, a GH1 β-glucosidase overexpressed in Trichoderma harzianum under biomass degradation conditions” (Biotechnology for Biofuels, 2016).

Assays:
[1] = biological target: T1, rThBgl (Trichoderma harzianum, UniProt A0A127SA86); experiment: glucose tolerance of beta-glucosidase activity, […] glucose, triplicate; assay type: biochemical; details: read-out: % activity at 300 mM
T1 construct: gene bgl; full-length GH1 beta-glucosidase, bgl gene 1398 bp, pET28a, E. coli Rosetta; N-terminal His6-tag cut with thrombin for assays

[2] = substrate: O=[N+]([O-])c1ccc(O[C@@H]2O[C@H](CO)[C@@H](O)[C@H](O)[C@H]2O)cc1; experiment: purified protein; details: 100 mM sodium phosphate pH 6.0, 40 °C, 0-10 mM substrate, 10 min

Molecule | activity at 300000 µM [1] [%] | Km [2] [µM]
OC[C@H]1OC(O)[C@H](O)[C@@H](O)[C@@H]1O (some centres unmarked) [glucose] | 50 | 
rThBgl (Trichoderma harzianum) (protein) MLPKDFQWGFATAAYQIEGAIDKDGRGPSIWDTFCAIPGKIADGTSGVTACDSYNRTAEDIALLKSLGAKSYRFSISWSRIIPKGGRDDPVNQLGIDHYAQFVDDLLEAGITPFITLFHWDLPEELHQRYGGLLNRTEFPLDFENYARVMFKALPKVRNWITFNEPLCSAIPGYGSGTFAPGRQSTTEPWIVGHNLLVAHGRAVKVYRDEFKDLNDGQIGIVLNGDFTYPWDSSDPLDREAAERRLEFFTAWYADPIYLGDYPASMRKQLGDRLPEFTPEEKAFVLGSNDFYGMNHYTSNYIRHRTSPATADDTVGNVDVLFYNKEGQCIGPETESSWLRPCPAGFRDFLVWISKRYNYPKIYVTENGTSLKGENDLPKEKILEDDFRVNYYNEYIRAMFTAATLDGVNVKGYFAWSLMDNFEWADGYVTRFGVTYVDYENGQQRFPKKSAKSLKPLFDELIAKE |  | 970
